This passage reports relative viability results from the supplement of paper PMC10307832.

Common to all, as to assay: relative viability (nuclei count vs DMSO), 5 days (fraction); higher = more cells survive
Compound in assay [1]: CCn1c(-c2nonc2N)nc2c(C#CC(C)(C)O)ncc(OC[C@H]3CCCNC3)c21 + CC(C)C[C@H](NC(=O)[C@H](Cc1ccccc1)NC(=O)c1cnccn1)B(O)O [Bortezomib] (partner 0.002 µM)
In a few lines:
(§1)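 Cells from lung cancer lines were seeded into 1536-well plates and, one day later, dosed by pin tool. Treatments were either a single drug or a fixed dose of an anchor drug with five library-drug doses (not always all listed) in √10 steps. After 5 days, nuclei were stained in a one-step fixation (final 0.05% Triton X-100, 1% formaldehyde, 1 ug/ml Hoechst) and counted on 4× images, and relative viability is the treated-to-vehicle nuclei ratio, as the median of duplicate plates.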

Compound in assay [2]: CCn1c(-c2nonc2N)nc2c(C#CC(C)(C)O)ncc(OC[C@H]3CCCNC3)c21 + O=C(CCCCCCC(=O)Nc1ccccc1)NO [Vorinostat] (partner 1 µM)
In a few lines:
as §1

Compound in the assay “BAM7 + Trametinib”: CCOC1=CC=CC=C1N=NC2=C(NN(C2=O)C3=NC(=CS3)C4=CC=CC=C4)C [BAM7] + CC(=O)Nc1cccc(-n2c(=O)n(C3CC3)c(=O)c3c(Nc4ccc(I)cc4F)n(C)c(=O)c(C)c32)c1 [Trametinib] (partner 0.02 µM)
In a few lines:
as §1

Compound in the assay “BAM7 + Phenformin”: CCOC1=CC=CC=C1N=NC2=C(NN(C2=O)C3=NC(=CS3)C4=CC=CC=C4)C [BAM7] + N=C(N)NC(=N)NCCc1ccccc1 [Phenformin] (partner 250 µM)
The method, boiled down: as §1

For NCI-H3122, the relative viability in assay [1] (first compound 0.01 µM) came out at 1.05; in assay [1] (first compound 0.03162 µM), 1.03; in assay [1] (first compound 0.1 µM), 1.07; in assay [1] (first compound 0.3162 µM), 1.1; in assay [1] (first compound 1 µM), 1.08; in assay [2] (first compound 0.01 µM), 1.07. For the same cell line, the relative viability in assay [2] (first compound 0.03162 µM) worked out at 1.01; in assay [2] (first compound 0.1 µM), 1.05; in assay [2] (first compound 0.3162 µM) it was 1.06; in assay [2] (first compound 1 µM) it was 0.994; in the assay with BAM7 + Trametinib (first compound 0.5 µM) it was 0.24; with BAM7 + Trametinib (first compound 5 µM) it was 0.232. Moreover, the relative viability with BAM7 + Trametinib (first compound 15.81 µM) was determined as 0.283; with BAM7 + Trametinib (first compound 50 µM), 0.198; with BAM7 + Phenformin (first compound 0.5 µM), 0.362; with BAM7 + Phenformin (first compound 5 µM) it was 0.371; with BAM7 + Phenformin (first compound 15.81 µM), 0.329; in the assay with BAM7 + Phenformin (first compound 50 µM), 0.35.
PC-3 [JPC-3]: the relative viability was determined as 0.82 in assay [1] (first compound 0.01 µM); 0.852 in assay [1] (first compound 0.03162 µM); 0.796 in assay [1] (first compound 0.1 µM); 0.781 in assay [1] (first compound 0.3162 µM); 0.808 in assay [1] (first compound 1 µM); 0.553 in assay [2] (first compound 0.01 µM). Besides, the relative viability came out at 0.73 in assay [2] (first compound 0.1 µM); 0.76 in assay [2] (first compound 0.3162 µM); 0.751 in assay [2] (first compound 1 µM); 0.592 in the assay with BAM7 + Trametinib (first compound 0.5 µM); 0.722 with BAM7 + Trametinib (first compound 5 µM); 0.637 with BAM7 + Trametinib (first compound 15.81 µM). Besides, the relative viability in the assay with BAM7 + Trametinib (first compound 50 µM) worked out at 0.617; with BAM7 + Phenformin (first compound 0.5 µM), 0.447; in the assay with BAM7 + Phenformin (first compound 5 µM), 0.491; in the assay with BAM7 + Phenformin (first compound 15.81 µM), 0.458; with BAM7 + Phenformin (first compound 50 µM) it was 0.439.
In the case of PC-14, the relative viability came out at 0.966 in assay [1] (first compound 0.01 µM); 0.84 in assay [1] (first compound 0.03162 µM); 0.956 in assay [1] (first compound 0.1 µM); 0.813 in assay [1] (first compound 0.3162 µM); 0.852 in assay [1] (first compound 1 µM); 0.68 in assay [2] (first compound 0.01 µM). Further, the relative viability turned out to be 0.742 in assay [2] (first compound 0.03162 µM); 0.722 in assay [2] (first compound 0.1 µM); 0.556 in assay [2] (first compound 0.3162 µM); 0.461 in assay [2] (first compound 1 µM); 0.829 with BAM7 + Trametinib (first compound 0.5 µM); 0.745 with BAM7 + Trametinib (first compound 5 µM). Also, the relative viability with BAM7 + Trametinib (first compound 15.81 µM) worked out at 0.542; in the assay with BAM7 + Trametinib (first compound 50 µM), 0.697; with BAM7 + Phenformin (first compound 0.5 µM), 0.619; in the assay with BAM7 + Phenformin (first compound 5 µM), 0.558; with BAM7 + Phenformin (first compound 15.81 µM), 0.588; with BAM7 + Phenformin (first compound 50 µM), 0.591.
Take RERF-LC-KJ: the relative viability worked out at 0.997 in assay [1] (first compound 0.01 µM); 1.11 in assay [1] (first compound 0.03162 µM); 1.06 in assay [1] (first compound 0.1 µM); 0.974 in assay [1] (first compound 0.3162 µM); 1.2 in assay [1] (first compound 1 µM); 0.665 in assay [2] (first compound 0.01 µM). The relative viability in assay [2] (first compound 0.03162 µM) amounted to 0.595; in assay [2] (first compound 0.1 µM), 0.684; in assay [2] (first compound 0.3162 µM) it was 0.574; in assay [2] (first compound 1 µM), 0.628; with BAM7 + Trametinib (first compound 0.5 µM) it was 0.767; in the assay with BAM7 + Trametinib (first compound 5 µM) it was 0.708. Further, the relative viability in the assay with BAM7 + Trametinib (first compound 15.81 µM) turned out to be 0.526; in the assay with BAM7 + Trametinib (first compound 50 µM), 0.642; in the assay with BAM7 + Phenformin (first compound 0.5 µM), 0.357; with BAM7 + Phenformin (first compound 5 µM), 0.35; with BAM7 + Phenformin (first compound 15.81 µM), 0.29; with BAM7 + Phenformin (first compound 50 µM), 0.328.
For the cell line SK-LU-1, the relative viability was 1.08 in assay [1] (first compound 0.01 µM); 1.08 in assay [1] (first compound 0.03162 µM); 0.707 in assay [1] (first compound 0.1 µM); 0.992 in assay [1] (first compound 0.3162 µM); 1.22 in assay [1] (first compound 1 µM); 0.767 in assay [2] (first compound 0.01 µM). Besides, the relative viability in assay [2] (first compound 0.03162 µM) turned out to be 0.781; in assay [2] (first compound 0.1 µM) it was 0.78; in assay [2] (first compound 0.3162 µM), 0.677; in assay [2] (first compound 1 µM) it was 0.767; in the assay with BAM7 + Trametinib (first compound 0.5 µM), 0.575; with BAM7 + Trametinib (first compound 5 µM) it was 0.525. Also, the relative viability with BAM7 + Trametinib (first compound 15.81 µM) was 0.527; with BAM7 + Trametinib (first compound 50 µM) it was 0.499; with BAM7 + Phenformin (first compound 0.5 µM), 0.556; in the assay with BAM7 + Phenformin (first compound 5 µM), 0.733; with BAM7 + Phenformin (first compound 15.81 µM), 0.532; with BAM7 + Phenformin (first compound 50 µM), 0.619.
Regarding SW 1573, the relative viability in assay [1] (first compound 0.01 µM) was determined as 0.993; in assay [1] (first compound 0.03162 µM), 0.946; in assay [1] (first compound 0.1 µM), 0.864; in assay [1] (first compound 0.3162 µM) it was 0.908; in assay [1] (first compound 1 µM), 0.646; in assay [2] (first compound 0.01 µM), 0.374. For the same cell line, the relative viability was found to be 0.82 in assay [2] (first compound 0.03162 µM); 0.451 in assay [2] (first compound 0.1 µM); 0.367 in assay [2] (first compound 0.3162 µM); 0.499 in assay [2] (first compound 1 µM); 0.633 with BAM7 + Trametinib (first compound 0.5 µM); 0.592 with BAM7 + Trametinib (first compound 5 µM). In addition, the relative viability was 0.541 with BAM7 + Trametinib (first compound 15.81 µM); 0.528 with BAM7 + Trametinib (first compound 50 µM); 0.386 with BAM7 + Phenformin (first compound 0.5 µM); 0.381 in the assay with BAM7 + Phenformin (first compound 5 µM); 0.327 with BAM7 + Phenformin (first compound 15.81 µM); 0.39 in the assay with BAM7 + Phenformin (first compound 50 µM).
